Entries after “also recorded” stand apart in the source; their conditions may differ.
Key:
[1] = test system: NO production induced by LPS in BV-2 cells; test: Inhibition of LPS-induced NO production in BV-2 cells (Griess method); format: cell-based; conditions: for IC50: BV-2 cells, 100 ng/mL LPS, 48 h, Griess reaction, mean ± SD, n = 3; for Suppression of NO generation (result in words): LPS-triggered BV-2 cells, Griess method
Method: To assess the potential capabilities of all modified products in counteracting neuroinflammation, we measured their suppressive effects on NO generation within LPS-triggered BV-2 cells using the Griess method.
(§1) NO production was assessed indirectly using the Griess reaction by measuring nitrite concentration in a culture medium. BV-2 cells were cultured in Dulbecco’s Modified Eagle Medium, supplemented with 10% FBS, 100 units/mL of penicillin, and 100 μg/mL of streptomycin. These cells were seeded in 96-well plates at a density of 8 × 10^4 cells/well and incubated for 24 h. Post incubation, they were exposed to 100 ng/mL of LPS alongside different compound concentrations for 48 h. A mixture of 100 μL culture supernatant and Griess reagent was left at room temperature for 10 min, with absorbance later read at 570 nm. L-NMMA served as the positive control. Cell viability was determined using the MTT assay, and experiments were conducted in triplicate. The IC50 for NO production inhibition was computed using GraphPad Prism 7.00 software.

[2] = Cell viability of BV-2 cells (MTT assay); format: cell-based; set-up: concentration or dose not given beside the values; conditions: mouse, mean ± SD, n = 3
Method: as §1

## COC1C=C2C3C(C)C(C)C(O)CC3(C(=O)O)CCC2(C)C2(C)CCC3C(C)(C)C(=O)CCC3(C)C12 (stereo not drawn) [Compound 7, 3-oxo-11α-methoxy-21β-hydroxy-urs-12-en-28-oic acid]
[1]; Mus musculus, BV-2, 48 h
  IC50: 11.6 ± 2.01 µM
[2]
  viability at 48 h: 99.2 ± 3.72%
other
  melting point: 268 to 271 °C

## CC1C(=O)CC2(C(=O)O)CCC3(C)C(=CCC4C5(C)CCC(=O)C(C)(C)C5CC(O)C43C)C2C1C (stereo not drawn) [Compound 5, 3,21-dioxo-7β-hydroxy-urs-12-en-28-oic acid]
[1]; Mus musculus, BV-2, 48 h
  IC50: 52.8 ± 3.34 µM
[2]
  viability at 48 h: 101 ± 4.11%
other
  melting point: 251 to 254 °C

## CC1C(O)CC23CCC4(C)C(C=CC5C6(C)CCC(=O)C(C)(C)C6CC(O)C54C)(OC2=O)C3C1C (stereo not drawn) [Compound 9, 3-oxo-7β,21β-dihydroxy-urs-11-en-13β,28β-lactone]
[1]
  Suppression of NO generation (result in words): did not showcase any suppression capabilities; also recorded: did not exhibit any inhibitory activities
[1]; Mus musculus, BV-2, 48 h
  IC50: > 100 µM
[2]
  viability at 48 h: 104 ± 3.86%
other
  melting point: 261 to 265 °C

## C[C@@H]1CC[C@]2(C(=O)O[C@@H]3O[C@H](CO)[C@@H](O)[C@H](O)[C@H]3O)CC[C@]3(C)C(=CCC4[C@@]5(C)CCC(=O)C(C)(C)C5CC[C@]43C)C2[C@H]1C (stereo partly drawn) [Compound 12, ursonic acid-28-O-β-D-glucopyranosyl ester]
[1]; Mus musculus, BV-2, 48 h
  IC50: 31.1 ± 3.98 µM
[2]
  viability at 48 h: 98.2 ± 4.37%

## [H]/N=C(/NC)NCCC[C@H](N)C(=O)O [L-NMMA, reference compound]
[1]; Mus musculus, BV-2, 48 h
  IC50: 28.2 ± 2.97 µM
[2]
  viability at 48 h: 101 ± 4.36%

## C[C@H]1[C@H](C)C2C3=CCC4[C@@]5(C)CCC(=O)C(C)(C)C5C[C@H](O)[C@@]4(C)[C@]3(C)CC[C@@]2(C(=O)O)C[C@@H]1O (stereo partly drawn) [Compound 3, 3-oxo-7β,21β-dihydroxy-12-en-28-oic acid]
[1]; Mus musculus, BV-2, 48 h
  IC50: 20.9 ± 2.13 µM
[2]
  viability at 48 h: 100 ± 3.92%

## CC1C(O)CC23CCC4(C)C5(C)CCC6C(C)(C)C(=O)CC(O)C6(C)C5C5OC5C4(OC2=O)C3C1C (stereo not drawn) [Compound 14, 3-oxo-1β,21β-dihydroxyl-11β,12β-epoxyl-urs-13β,28β-lactone]
[1]; Mus musculus, BV-2, 48 h
  IC50: 22.6 ± 3.44 µM
[2]
  viability at 48 h: 104 ± 4.92%
other
  melting point: 278 to 280 °C

## C[C@H]1[C@H](C)C2C3=CCC4[C@@]5(C)CCC(=O)C(C)(C)C5CC[C@@]4(C)[C@]3(C)CC[C@@]2(C(=O)O)C[C@@H]1O (stereo partly drawn) [Compound 2, 3-oxo-21β-hydroxy-12-en-urs-28-oic acid]
[1]; Mus musculus, BV-2, 48 h
  IC50: 38.2 ± 4.09 µM
[2]
  viability at 48 h: 101 ± 2.45%

## C[C@@H]1CC[C@]2(C(=O)O)CC[C@]3(C)C(=CCC4[C@@]5(C)CCC(=O)C(C)(C)C5CC[C@]43C)C2[C@]1(C)O (stereo partly drawn) [Compound 11, 3-oxo-19α-hydroxy-12-en-urs-28-oic acid]
[1]; Mus musculus, BV-2, 48 h
  IC50: 42.5 ± 3.7 µM
[2]
  viability at 48 h: 101 ± 3.42%

## C[C@@H]1CC[C@]2(C(=O)O)CC[C@]3(C)C(=CC(=O)C4[C@@]5(C)CCC(=O)C(C)(C)C5CC[C@]43C)C2[C@H]1C (stereo partly shown) [Compound 6, 3,11-dioxo-12-en-urs-28-oic acid]
[1]; Mus musculus, BV-2, 48 h
  IC50: 50.2 ± 3.16 µM
[2]
  viability at 48 h: 105 ± 4.23%

## CC1C(O)CC23CCC4(C)C5(C)CCC6C(C)(C)C(=O)C=CC6(C)C5C5OC5C4(OC2=O)C3C1C (stereo not drawn) [Compound 18, 3-oxo-21β-hydroxyl-11β,12β-epoxyl-urs-1-ene-13β,28β-lactone]
[1]; Mus musculus, BV-2, 48 h
  IC50: 17.4 ± 2.72 µM
[2]
  viability at 48 h: 103 ± 3.26%
other
  melting point: 242 to 245 °C

## C[C@H]1[C@H](C)CC[C@]2(C(=O)O)CC[C@]3(C)C(=CC[C@@H]4[C@@]5(C)CCC(=O)C(C)(C)[C@@H]5CC[C@]43C)[C@H]12 [Compound 1, Ursonic acid]
[1]; Mus musculus, BV-2, 48 h
  IC50: 84.7 ± 3.22 µM
[2]
  viability at 48 h: 98.8 ± 3.61%

## CC1=C2C(C3OC3C34OC(=O)C5(CCC23C)CC(O)C(C)C(C)C54)C2(C)CCC(=O)C(C)(C)C2C1 (stereo not drawn) [Compound 19, 3-oxo-21β-hydroxyl-7-methyl-11β,12β-epoxyl-7-ene-26-norurs-13β,28β-lactone]
[1]
  IC50: 5.25 ± 3.19 µM
[1]; Mus musculus, BV-2, 48 h
  IC50: 5.3 µM
[2]
  viability at 48 h: 103 ± 3.03%
other
  melting point: 282 to 284 °C

## CC1C(=O)CC23CCC4(C)C5(C)C(O)CC6C(C)(C)C(=O)CCC6(C)C5C5OC5C4(OC2=O)C3C1C (stereo not drawn) [Compound 17, 3,21-dioxo-7β-hydroxyl-11β,12β-epoxyl-urs-13β,28β-lactone]
[1]; Mus musculus, BV-2, 48 h
  IC50: 40.8 ± 3.26 µM
[2]
  viability at 48 h: 100 ± 3.54%
other
  melting point: 247 to 249 °C

## C[C@H]1[C@H](C)C2[C@@]3(CC[C@@]4(C)[C@@]5(C)C([C@H]6O[C@H]6[C@]24OC3=O)[C@@]2(C)CCC(=O)C(C)(C)C2C[C@@H]5O)C[C@@H]1O (stereo partly drawn) [Compound 16, 3-oxo-7β,21β-dihydroxyl-11β,12β-epoxyl-urs-13β,28β-lactone]
[1]
  IC50: 6.86 ± 3.52 µM
[1]; Mus musculus, BV-2, 48 h
  IC50: 6.9 µM
[2]
  viability at 48 h: 97.8 ± 4.75%
other
  melting point: 268 to 273 °C

## COC1=CCC2(C)C(CCC3(C)C2CC=C2C4C(C)C(C)CCC4(C(=O)O)CCC23C)C1(C)C (stereo not shown) [Compound 10, 3-methoxy-urs-2,12-dien-28-oic acid]
[1]
  IC50: 8.23 ± 2.61 µM
[1]; Mus musculus, BV-2, 48 h
  IC50: 8.2 µM
[2]
  viability at 48 h: 104 ± 4.05%
other
  melting point: 284 to 288 °C

## C[C@@H]1C(=O)C[C@]2(C(=O)O)CC[C@]3(C)C(=CCC4[C@@]5(C)CCC(=O)C(C)(C)C5CC[C@]43C)C2[C@H]1C (stereo partly shown) [Compound 4, 3,21-dioxo-urs-12-en-28-oic acid]
[1]
  Suppression of NO generation (result in words): did not showcase any suppression capabilities
[1]; Mus musculus, BV-2, 48 h
  IC50: > 100 µM
[2]
  viability at 48 h: 104 ± 3.18%

## CC1C(O)CC23CCC4(C)C5(C)CCC6C(C)(C)C(=O)CCC6(C)C5C5OC5C4(OC2=O)C3C1C (stereo not drawn) [Compound 13, 3-oxo-21β-hydroxyl-11β,12β-epoxyl-urs-13β,28β-lactone]
[1]; Mus musculus, BV-2, 48 h
  IC50: 15.2 ± 3.07 µM
[2]
  viability at 48 h: 103 ± 3.59%
other
  melting point: 257 to 263 °C

## CC1C(O)CC23CCC4(C)C5(C)CCC6C(C)(C)C(=O)CCC6(C)C5C=CC4(OC2=O)C3C1C (stereo not drawn) [Compound 8, 3-oxo-21β-hydroxy-urs-11-en-13β,28β-lactone]
[1]
  Suppression of NO generation (result in words): did not showcase any suppression capabilities; also recorded: did not exhibit any inhibitory activities
[1]; Mus musculus, BV-2, 48 h
  IC50: > 100 µM
[2]
  viability at 48 h: 102 ± 3.54%
other
  melting point: 245 to 247 °C

## CC1C(O)CC23CCC4(C)C5(C)C(O)CC6C(C)(C)C(=O)CCC6(C)C5C5OC5C4(OC2=O)C3C1C (stereo not drawn) [Compound 15, 3-oxo-7α,21β-dihydroxyl-11β,12β-epoxyl-urs-13β,28β-lactone]
[1]; Mus musculus, BV-2, 48 h
  IC50: 36.6 ± 2.33 µM
[2]
  viability at 48 h: 102 ± 3.18%
other
  melting point: 270 to 274 °C

From PMC10745867, “Biotransformation of Ursonic Acid by Aspergillus ochraceus and Aspergillus oryzae to Discover Anti-Neuroinflammatory Derivatives” (Molecules, 2023)
